Data on 27 molecules can be found in patent US9156827B2, “Anticancer agent” (THE UNIVERSITY OF TOKYO, priority 2010, dated 2015).

One test concerns the target pim-1 kinase (Homo sapiens, UniProt P11309). Briefly: Measurement of pim-1 kinase inhibitory activity (fluorescent substrate peptide, capillary electrophoresis). Conditions: 0.1 μM of each compound, 30 μM ATP, 1.5 μM substrate peptide, room temperature 2 hours. The class given is biochemical. Here is the method:
Measurement of Pim-1 Kinase Inhibitory Activity
The result of the reaction was determined by quantifying the substrate and the phosphorylated reaction product separated by capillary electrophoresis based on difference in charges of the substances (EZ Reader II, Caliper Life Sciences, was used).

The subject of test [1] is Human acute myeloid leukemia MV4-11 cells. Put plainly: Cell proliferation-suppressing activity, chromogenic method (MTT assay). The class given is cell-based. The settings on record: 72 h, compound 1 μM, MTT assay three days after addition. Here is the method:
(§1) Measurement of Cell Proliferation-Suppressing Activity (Chromogenic Method)
Human acute myeloid leukemia MV4-11 cells (10^4 cells) were inoculated on a 96-well microtiter plate, each compound was added at a final concentration of 1 μM 24 hours afterward, and MTT assay was performed three days after the addition of the compound to measure the cell proliferation-suppressing activity.
A general note: Formazan colour is commonly taken as a measure of viable cells.

For test [2] the test system is unchanged. Briefly: Cell proliferation-suppressing activity, chromogenic method (Cell Counting Kit-8). In kind it is cell-based. Conditions: compound 1 μM, 48 hours, Cell Counting Kit-8, absorbance 450 nm. Here is the method: as §1
Human acute myeloid leukemia MV4-11 cells (2×10^4 cells) are inoculated on a 96-well microtiter plate. Each compound is added at a final concentration of 1 μM on the next day, and the cells are cultured for additional 48 hours. Absorbance is measured at 450 nm by using Cell Counting Kit-8 (Nacalai Tesque) to calculate the cell proliferation-suppressing activity.

The structures appear in SMILES notation. Where a name gives a salt, the structure may show the parent alone.

Chain of pim-1 kinase (P11309 whole entry): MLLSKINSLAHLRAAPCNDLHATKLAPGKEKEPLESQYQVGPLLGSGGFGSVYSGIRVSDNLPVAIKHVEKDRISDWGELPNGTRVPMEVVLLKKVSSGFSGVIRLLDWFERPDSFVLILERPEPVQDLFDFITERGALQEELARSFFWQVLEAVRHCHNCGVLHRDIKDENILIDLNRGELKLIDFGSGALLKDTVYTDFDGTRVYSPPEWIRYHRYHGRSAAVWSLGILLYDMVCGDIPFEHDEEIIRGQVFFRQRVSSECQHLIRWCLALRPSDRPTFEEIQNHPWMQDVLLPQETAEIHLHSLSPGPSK

A word on the inhibition: it is the drop in the measured response relative to a control, in per cent. Higher therefore signals a strong effect. `CCCCOc1ccc2c(c1CN1CCNCC1)O/C(=C\c1n[nH]c3ccccc13)C2=O` [Compound B24, (Z)-2-[(1H-Indazol-3-yl)methylene]-6-butoxy-7-(piperazin-1-ylmethyl)benzofuran-3(2H)-one] gave an inhibition at 0.1 µM against pim-1 kinase (Table 2) of 88%. Further, 1 µM produced 89% inhibition in test [1] (Table 4).

The molecule `CN(C)C1CCN(Cc2c(O)ccc3c2O/C(=C\c2c[nH]c4ccccc24)C3=O)C1` (stereo not drawn) [Compound A3, (Z)-2-[(1H-Indol-3-yl)methylene]-7-{[3-(dimethylamino)pyrrolidin-1-yl]methyl}-6-hydroxybenzofuran-3(2H)-one] registered an inhibition at 0.1 µM against pim-1 kinase (Table 1) of 47%. In test [1] (Table 3), this molecule registered an inhibition at 1 µM of 41%.

`O=C1/C(=C/c2c[nH]c3ccccc23)Oc2c1ccc(O)c2CN1CCNCC1` [Compound A11, (Z)-2-[(1H-Indol-3-yl)methylene]-6-hydroxy-7-(piperazin-1-ylmethyl)benzofuran-3(2H)-one] came in with an inhibition at 0.1 µM against pim-1 kinase (Table 1) of 87%. Testing at 1 µM in test [1] (Table 3) gave an inhibition of 82%.

For the molecule `O=C1/C(=C/c2c[nH]c3ccc([N+](=O)[O-])cc23)Oc2c1ccc(O)c2CN1CCNCC1` [Compound A17, (Z)-6-Hydroxy-2-[(5-nitro-1H-indol-3-yl)methylene]-7-(piperazin-1-ylmethyl)benzofuran-3(2H)-one dihydrochloride], the inhibition at 0.1 µM against pim-1 kinase (Table 1) worked out at 82%. In test [1] (Table 3), this molecule gave an inhibition at 1 µM of 73%.

On to `O=C1/C(=C/c2n[nH]c3ccccc23)Oc2c1ccc(OC1CCOCC1)c2CN1CCNCC1` [Compound B29, (Z)-2-[(1H-Indazol-3-yl)methylene]-7-(piperazin-1-ylmethyl)-6-(tetrahydro-2H-pyran-4-yloxy)benzofuran-3(2H)-one], for which testing at 0.1 µM on pim-1 kinase (Table 2) gave an inhibition of 82%. Besides, the inhibition at 1 µM in test [1] (Table 4) stood at 90%.

Regarding `CCOc1ccc2c(c1CN1CCNCC1)O/C(=C\c1n[nH]c3ccccc13)C2=O` [Compound B22, (Z)-2-[(1H-Indazol-3-yl)methylene]-6-ethoxy-7-(piperazin-1-ylmethyl)benzofuran-3(2H)-one], at pim-1 kinase (Table 2), 0.1 µM produced 96% inhibition. Further, the inhibition at 1 µM in test [1] (Table 4) stood at 90%.

Take `O=C1/C(=C/c2n[nH]c3ccccc23)Oc2c1ccc(OCC1CC1)c2CN1CCNCC1` [Compound B27, (Z)-2-[(1H-Indazol-3-yl)methylene]-6-(cyclopropylmethoxy)-7-(piperazin-1-ylmethyl)benzofuran-3(2H)-one]: the inhibition at 0.1 µM on pim-1 kinase (Table 2) was 91%. The molecule also returned an inhibition at 1 µM in test [1] (Table 4) of 89%.

`CCCOc1ccc2c(c1CN1CCNCC1)O/C(=C\c1n[nH]c3ccccc13)C2=O` [Compound B23, (Z)-2-[(1H-Indazol-3-yl)methylene]-7-(piperazin-1-ylmethyl)-6-propoxybenzofuran-3(2H)-one] returned an inhibition at 0.1 µM against pim-1 kinase (Table 2) of 93%. The same molecule had an inhibition at 1 µM in test [1] (Table 4) of 90%.

Turning to `COCCOc1ccc2c(c1CN1CCNCC1)O/C(=C\c1n[nH]c3ccccc13)C2=O` [Compound B21, (Z)-2-[(1H-Indazol-3-yl)methylene]-6-(2-methoxyethoxy)-7-(piperazin-1-ylmethyl)benzofuran-3(2H)-one], the inhibition at 0.1 µM at pim-1 kinase (Table 2) came out at 97%. In addition, the inhibition at 1 µM in test [1] (Table 4) was determined as 94%.

Molecule `O=C1/C(=C/c2n[nH]c3ccccc23)Oc2c1cc1c(c2CN2CCNCC2)OCO1` [Compound B39] yielded an inhibition at 0.1 µM at pim-1 kinase (Table 2) of 95%. In test [1] (Table 4), this molecule gave an inhibition at 1 µM of 92%.

`COc1ccc2c(c1CN1CCNCC1)O/C(=C\c1n[nH]c3ccc(Br)cc13)C2=O` [Compound B19, (Z)-2-[(5-Bromo-1H-indazol-3-yl)methylene]-6-methoxy-7-(piperazin-1-ylmethyl)benzofuran-3(2H)-one] displayed an inhibition at 0.1 µM against pim-1 kinase (Table 2) of 100%. Moreover, at 1 µM the inhibition in test [1] (Table 4) was 94%.

With `COc1ccc2c(c1CN1CCNCC1)O/C(=C\c1n[nH]c3ccc(Cl)cc13)C2=O` [Compound B18, (Z)-2-[(5-Chloro-1H-indazol-3-yl)methylene]-6-methoxy-7-(piperazin-1-ylmethyl)benzofuran-3(2H)-one], 0.1 µM produced 95% inhibition against pim-1 kinase (Table 2). The same molecule displayed an inhibition at 1 µM in test [1] (Table 4) of 87%.

Turning to `CC(C)Oc1ccc2c(c1CN1CCNCC1)O/C(=C\c1n[nH]c3ccccc13)C2=O` [Compound B25, (Z)-2-[(1H-Indazol-3-yl)methylene]-6-isopropoxy-7-(piperazin-1-ylmethyl)benzofuran-3(2H)-one], 0.1 µM produced 97% inhibition on pim-1 kinase (Table 2). In addition, the inhibition at 1 µM in test [1] (Table 4) is 91%.

Molecule `COc1ccc2c(c1Cc1c(C)n[nH]c1C)O/C(=C\c1n[nH]c3ccccc13)C2=O` [Compound B73, (Z)-2-[(1H-Indazol-3-yl)methylene]-7-[(3,5-dimethyl-1H-pyrazol-4-yl)methyl]-6-methoxybenzofuran-3(2H)-one] came in with an inhibition at 1 µM in test [2] (Table 7) of 81%. Moreover, at pim-1 kinase (Table 2), 0.1 µM produced 49% inhibition.

`COc1ccc2c(c1CN1CCNCC1)O/C(=C\c1n[nH]c3ccccc13)C2=O` [Compound B17, (Z)-2-[(1H-Indazol-3-yl)methylene]-6-methoxy-7-(piperazin-1-ylmethyl)benzofuran-3(2H)-one] showed an inhibition at 0.1 µM against pim-1 kinase (Table 2) of 100%. In test [1] (Table 4), this molecule showed an inhibition at 1 µM of 93%.

In the case of `COc1cc2c(c(CN3CCNCC3)c1OC)O/C(=C\c1n[nH]c3ccccc13)C2=O` [Compound B38, (Z)-2-[(1H-Indazol-3-yl)methylene]-5,6-dimethoxy-7-(piperazin-1-ylmethyl)benzofuran-3(2H)-one], the inhibition at 0.1 µM on pim-1 kinase (Table 2) is 87%. This molecule had an inhibition at 1 µM in test [1] (Table 4) of 95%.

With `CCCOc1ccc2c(c1CN1CCNCC1)O/C(=C\c1c[nH]c3ccccc13)C2=O` [Compound A60, (Z)-2-((1H-Indol-3-yl)methylene)-7-(piperazin-1-ylmethyl)-6-propoxybenzofuran-3(2H)-one], the inhibition at 1 µM in test [2] (Table 6) was 91%. Also, at pim-1 kinase (Table 1), the inhibition at 0.1 µM came out at 84%.

For the molecule `O=C1/C(=C/c2n[nH]c3ccccc23)Oc2c1ccc(OCCOc1ccccc1)c2CN1CCNCC1` [Compound B31, (Z)-2-((1H-Indazol-3-yl)methylene)-6-(2-phenoxyethoxy)-7-(piperazin-1-ylmethyl)benzofuran-3(2H)-one], the inhibition at 0.1 µM against pim-1 kinase (Table 2) worked out at 95%. The inhibition at 1 µM in test [1] (Table 4) turned out to be 84%.

On to `O=C1/C(=C/c2c[nH]c3ccc(Br)cc23)Oc2c1ccc(O)c2CN1CCNCC1` [Compound A22, (Z)-2-[(5-Bromo-1H-indol-3-yl)methylene]-6-hydroxy-7-(piperazin-1-ylmethyl)benzofuran-3(2H)-one dihydrochloride], for which 0.1 µM produced 94% inhibition on pim-1 kinase (Table 1). The molecule also registered an inhibition at 1 µM in test [1] (Table 3) of 70%.

For the molecule `O=C1CN(Cc2c(O)ccc3c2O/C(=C\c2c[nH]c4ccccc24)C3=O)CCN1` [Compound A7, (Z)-4-({2-[(1H-Indol-3-yl)methylene]-6-hydroxy-3-oxo-2,3-dihydrobenzofuran-7-yl}methyl)piperazin-2-one], the inhibition at 0.1 µM on pim-1 kinase (Table 1) was found to be 81%. Further, the inhibition at 1 µM in test [1] (Table 3) was determined as 22%.

As to `COc1ccc2c(c1CCCN1CCNCC1)O/C(=C\c1n[nH]c3ccccc13)C2=O` [Compound B48, (Z)-2-[(1H-Indazol-3-yl)methylene]-6-methoxy-7-[3-(piperazin-1-yl)propyl]benzofuran-3(2H)-one], the inhibition at 1 µM in test [2] (Table 7) was 96%. For the same molecule, the inhibition at 0.1 µM against pim-1 kinase (Table 2) turned out to be 75%.

With `O=C1/C(=C/c2c[nH]c3ncccc23)Oc2c(CN3CCNCC3)cccc21` [Compound A58, (Z)-2-[(1H-Pyrrolo[2,3-b]pyridin-3-yl)methylene]-7-(piperazin-1-ylmethyl)benzofuran-3(2H)-one], in test [2] (Table 6), the inhibition at 1 µM was 72%. On pim-1 kinase (Table 1), this molecule gave an inhibition at 0.1 µM of 92%.

In test [2] (Table 7), `COc1ccc2c(c1CCC1CCNCC1)O/C(=C\c1n[nH]c3ncccc13)C2=O` [Compound B72, (Z)-2-[(1H-Pyrazolo[3,4-b]pyridin-3-yl)methylene]-6-methoxy-7-[2-(piperidin-4-yl)ethyl]benzofuran-3(2H)-one] registered an inhibition at 1 µM of 93%. Moreover, the inhibition at 0.1 µM on pim-1 kinase (Table 2) is 97%.

For `COc1ccc2c(c1C#CCCC1CCNCC1)O/C(=C\c1n[nH]c3ccccc13)C2=O` [Compound B61, (Z)-2-[(1H-Indazol-3-yl)methylene]-6-methoxy-7-[4-(piperidin-4-yl)but-1-ynyl]benzofuran-3(2H)-one], testing at 1 µM in test [2] (Table 7) gave an inhibition of 97%. At pim-1 kinase (Table 2), the inhibition at 0.1 µM came out at 70%.

In test [2] (Table 7), `COc1ccc2c(c1/C=C/C1CCNCC1)O/C(=C\c1n[nH]c3ccccc13)C2=O` [Compound B64, (Z)-2-[(1H-Indazol-3-yl)methylene]-6-methoxy-7-[(E)-2-(piperidin-4-yl)vinyl]benzofuran-3(2H)-one] showed an inhibition at 1 µM of 93%. Besides, the inhibition at 0.1 µM against pim-1 kinase (Table 2) is 81%.

With `COc1ccc2c(c1C1CCNCC1)O/C(=C\c1n[nH]c3ccccc13)C2=O` [Compound B53, (Z)-2-[(1H-Indazol-3-yl)methylene]-6-methoxy-7-(piperidin-4-yl)benzofuran-3(2H)-one], the inhibition at 1 µM in test [2] (Table 7) is 98%. On pim-1 kinase (Table 2), this molecule returned an inhibition at 0.1 µM of 36%.

Take `COc1ccc2c(c1C#CCN1CCNCC1)O/C(=C\c1n[nH]c3ccccc13)C2=O` [Compound B46, (Z)-2-[(1H-Indazol-3-yl)methylene]-6-methoxy-7-[3-(piperazin-1-yl)prop-1-ynyl]benzofuran-3(2H)-one]: the inhibition at 1 µM in test [2] (Table 7) came to 97%. Also, 0.1 µM produced 86% inhibition on pim-1 kinase (Table 2).
